Data from patent publication US7893068B2, “Physiologically active substances” (Mercian Corporation, priority 2002, dated 2011).
Where two headings read alike, the source gives them in different places.

Columns and labels:
VEGF promoter = test: VEGF transcription-suppressing activity (VEGF promoter-PLAP reporter, U251/1-8 cells, hypoxia); format: cell-based; conditions: Homo sapiens, read-out: VEGF transcription-suppressing activities (IC50: nM)
Description: In order to prepare reporter system reflecting transcription from VEGF promoter, VEGF promoter sequence was cloned, and inserted in secretory alkaline phosphatase (PLAP) vector to construct reporter vector.
In order to obtain the promoter region of human VEGF, VEGF genomic DNA was cloned from phage library. PCR primers having the sequences described in Sequence Numbers 1 and 2 were designed based on VEGF cDNA (GenBank accession number: X62568) and a fragment having about 340 bp was obtained by carrying out PCR. Human genomic phage library (Human genomic library, Clontech Co.) was screened using this as a probe to obtain VEGF genomic DNA. The DNA was digested by EcoRI, and the resultant fragments were inserted in the EcoRI site of pUC18. Finally, pUC18-VEGFA containing about 5.4 kb of VEGF 5′ flanking region was obtained. The pUC18-VEGFA was digested by KpnI/NheI, VEGF promoter region of about 2.3 kb obtained was inserted in the multi cloning site KpnI/NheI of secretory alkaline phosphatase (PLAP) vector (Goto et al, Mol. Pharmacol., 49, 860-873, 1996), and thus, VEGF-PLAP vector was constructed.
The above-mentioned VEGF-PLAP vector was transfected in the U251 cell cultured in the DULBECCO-modified eagle medium (DMEM; manufactured by SIGMA Co., Ltd.) containing 10% fetal calf serum, and the cells were cultured in the presence of 1 mg/mL G418 (Merck Co.) to establish G418 resistant stable clone (U251/1-8 cell).
It was confirmed that U251/1-8 cell secreted PLAP under hypoxic condition (2% O2 incubator) in the same manner as in the report (Cell. Mol. Biol. Res. 40, 35-39, 1994) and was a reporter system reflecting the transcription from VEGF promoter. The screening of the compound suppressing VEGF production which was induced by hypoxic stimulation was carried out below using the clone.
In order to remove the influence of alkaline phosphates in serum, U251/1-8 cells were rinsed twice with the adequate amount of PBS (Phosphate buffered saline), diluted in the DMEM medium containing 10% of serum in which alkaline phosphates was inactivated by the treatment of 65° C. for 20 min., and dispensed in 96-well plates by 4×10^4 cells/180 μL.
After culturing at 37° C. overnight in a CO2 incubator (5% CO2), 20 μL of the above-mentioned incubation solution containing the test compound diluted with 3-fold succession was added, and then they were incubated in a hypoxic (2% […]) incubator for 18 hours. With respect to the PLAP activity in the culture supernatants, 10 μL of the supernatants was added to 50 μL of 0.28 M Na2CO3—NaHCO3 buffer solution (pH 10.0, 8.0 mM MgSO4), and finally 50 μL of alkaline phosphatase substrate (LUMISTEIN, Genomescience Co.) was added. After reacting for one hour, the alkaline phosphatase activity of the PLAP was measured by detecting the chemical luminescence by a micro plate reader (Perkin-Elmer Co.). The PLAP activity under normoxia was set as 0%, the PLAP activity of cell which was treated under hypoxia was set as 100%, and the concentration suppressing the PLAP activity by 50% was set as the IC50 value of PLAP. The IC50 values of 11107D derivatives shown in Examples were measured, and the IC50 values of representative 11107D derivatives are shown in Table 1.

[1] = system: WiDr human colon cancer cells; test: Growth inhibitory activities on WiDr human colon cancer cells (MTT); format: cell-based; conditions: 72 h, three days incubation
Description: WiDr human colon cancer cells cultured in DULBECCO-modified eagle medium (DMEM; manufactured by SIGMA Co., Ltd.) containing 10% fetal calf serum, penicillin (100 unit/mL) and streptomycin (100 μg/mL) were dispensed in 96-well plates by 2×10^3 cells/well. After culturing overnight in a CO2 incubator, 20 μL of the above-mentioned incubation solution containing the test compound diluted with 3-fold succession was added, followed by incubation. After three days, 50 μL of 3.3 mg/mL MTT solution was added, followed by culturing for further one hour. Then, formazan formed by the reduction by the action of living cells was extracted with 100 μL of DMSO, the absorbance (A540/A660) was determined and was set as the index of the number of living cells.
The concentrations of the compounds of the formula (I) at which the growth of WiDr human colon cancer cells are inhibited 50% were determined.

[2] = system: WiDr human colon cancer cells; test: Solid tumor growth inhibitory activities, WiDr human colon tumor model in nude mice; format: in vivo; conditions: Mus musculus, 360 h
Description: (§1) In order to study solid tumor growth inhibitory activities of the compounds of the formula (I) in vivo, WiDr human colon cancer cells were implanted subcutaneously into the flanks of nude mice. […]. The animals were grouped so that the average of the volumes of the respective groups became uniform, when it reached about 100 mm^3. Control group was made up of 10 mice and 11107D-administering groups were made up of 5 mice. The derivatives were administered for the administering groups for 5 consecutive days by intravenous injection so as to be any of 0.625 mg, 1.25 mg, 2.5 mg, 5 mg and 10 mg/kg/day, and a vehicle was administered to the control group. The tumor volumes on Day 15 were measured, and relative tumor volume ratios (T/C %) were determined setting the tumor volume of the control group as 100%. The body weights on Day 1, Day 5, Day 8, Day 12 and Day 15 (or 16) were measured, and relative body weight variations were determined setting the body weight on Day 1 as 100%. The relative body weight ratios on the day where the body weight reached the minimum were defined as the minimum relative weight ratios and are shown in Table 3.

[3] = Body weight loss (acute toxicity) in the WiDr tumor model; format: in vivo, nude mice; conditions: intravenous 5 consecutive days, body weight relative to Day 1
Description: as §1

[4] = Stability in an aqueous solution (HPLC residual ratio); conditions: for Peak area (mAU × sec) after 24 hours / The residual ratios (%): Britton-Robinson's buffer pH 7, 25° C., 24 hours; for Peak area (mAU × sec) initial: Britton-Robinson's buffer pH 7, before incubation
Description: The compounds of the formula (I) were dissolved in DMSO in concentrations of 10 to 20 mM, and these were diluted about 500 folds with Britton-Robinson's buffer solution of pH 7. Each of the solutions as sample solutions was incubated at 25° C. for 24 hours.
The sample solutions were analyzed by high performance liquid chromatography before and after incubation, and the residual ratios of the tested substances in the sample solutions after incubation were determined from the peak areas of the obtained chromatograms.

[5] = Physico-chemical properties: solubility; format: physicochemical
Description: The physico-chemical properties of 11107D are shown below. The structure of 11107D was determined as shown below.

P388 mouse leukemia cell [6] = conditions: P388, RPM-1640 medium; cited from earlier work
[7] = system: L-1210 mouse leukemia cell; conditions: L-1210, RPM-1640 medium; cited from earlier work
[8] = system: HL-60 human leukemia cell; conditions: HL-60, RPM-1640 medium; cited from earlier work
P388 mouse leukemia cell [9] = conditions: cited from earlier work
[10] = iv, read-out: Growth inhibitory activities in the WiDr human solid tumor model (T/C %)

Row | Structure (SMILES) | IC50 (VEGF promoter; U-251, U251/1-8 cells, hypoxic incubator 18 hours, PLAP activity) | IC50 [1] | response vs control in vivo at 5 mg/kg ([2]; Dose 5.0 mg/kg, intravenous injection 5 consecutive days, tumor volume Day 15, read-out: Growth inhibitory activities in the WiDr human solid tumor model (T/C %)) | the minimum relative weight ratios ([3]; Dose 5.0 mg/kg) | Peak area (mAU × sec) after 24 hours [4] | The residual ratios (%) [4] | Peak area (mAU × sec) initial [4] | IC50 (VEGF promoter; U-251, 18 h) | response vs control in vivo at 5 mg/kg [2, 10] | response vs control in vivo at 0.625 mg/kg [2, 10] | the minimum relative weight ratios ([3]; Dose 0.625 mg/kg) | response vs control in vivo at 2.5 mg/kg [2, 10] | the minimum relative weight ratios ([3]; Dose 2.5 mg/kg) | Solubility in organic solvents ([5]; dimethyl sulfoxide, pyridine, methanol and acetone) | Solubility in water ([5]; water) | Stability in an aqueous solution [4] | in vitro cell growth inhibitory activities (P388 mouse leukemia cell [6]) | in vitro cell growth inhibitory activities [7] | in vitro cell growth inhibitory activities [8] | antitumor activities in an in vivo experiment (P388 mouse leukemia cell [9])
1 | CCC(O)C(C)C1OC1CC(C)(O)/C=C/C=C(\C)C1OC(=O)CC(O)CCC(C)(O)C(OC(=O)N2CCN(C3CCCCCC3)CC2)/C=C/C1C (stereo not drawn) [Compound 45, (8E,12E,14E)-7-((4-Cycloheptylpiperazin-1-yl)carbonyl)oxy-3,6,16,21-tetrahydroxy-6,10,12,16,20-pentamethyl-18,19-epoxytricosa-8,12,14-trien-11-olide] | 1.9 nM | 0.7 nM | 20% | 0.90 | 5024 mAU × sec | 95.0% | 5291 mAU × sec |  |  |  |  |  |  |  |  |  |  |  |  | 
2 | CCC(O)C(C)C1OC1CC(C)(O)/C=C/C=C(\C)C1OC(=O)CC(O)CCC(C)(O)C(OC(=O)N(C)CCN(CC)CC)/C=C/C1C (stereo not drawn) [Compound 75, (8E,12E,14E)-7-(N-(2-(N′,N′-Diethylamino)ethyl)-N-methylcarbamoyloxy)-3,6,16,21-tetrahydroxy-6,10,12,16,20-pentamethyl-18,19-epoxytricosa-8,12,14-trien-11-olide] |  | 4.1 nM |  | 0.82 | 2478 mAU × sec | 95.5% | 2594 mAU × sec | 9.1 nM | 17% |  |  |  |  |  |  |  |  |  |  | 
3 | CCC(O)C(C)C1OC1CC(C)(O)/C=C/C=C(\C)C1OC(=O)CC(O)CCC(C)(OC)C(OC(=O)N2CCC(N3CCCCC3)CC2)/C=C/C1C (stereo not drawn) [Compound 109, (8E,12E,14E)-3,16,21-Trihydroxy-6-methoxy-6,10,12,16,20-pentamethyl-7-((4-(piperidin-1-yl)piperidin-1-yl)carbonyl)oxy-18,19-epoxytricosa-8,12,14-trien-11-olide] |  | 1.5 nM |  |  | 2111 mAU × sec | 94.9% | 2224 mAU × sec | 3.3 nM |  | 36% | 0.89 |  |  |  |  |  |  |  |  | 
4 | CCC(OC)C(C)C1OC1CC(C)(O)/C=C/C=C(\C)C1OC(=O)CC(O)CCC(C)(O)C(OC(=O)N2CCN(C)CC2)/C=C/C1C (stereo not drawn) [Compound 131, (8E,12E,14E)-3,6,16-Trihydroxy-21-methoxy-6,10,12,16,20-pentamethyl-7-((4-methylpiperazin-1-yl)carbonyl)oxy-18,19-epoxytricosa-8,12,14-trien-11-olide] |  | 0.7 nM |  |  | 157 mAU × sec | 93.2% | 168 mAU × sec | 1.7 nM |  |  |  | 28% | 0.83 |  |  |  |  |  |  | 
5 | CCC(O)C(C)C1OC1CC(C)(O)/C=C/C=C(\C)C1OC(=O)CC(O)CCC(C)(O)C(OC(C)=O)/C=C/C1C (stereo not drawn) [Compound 11107D, (8E,12E,14E)-7-acetoxy-3,6,16,21-tetrahydroxy-6,10,12,16,20-pentamethyl-18,19-epoxytricosa-8,12,14-trien-11-olide] |  |  |  |  | 3817 mAU × sec | 95.6% | 3994 mAU × sec |  |  |  |  |  |  | soluble | slightly soluble | stable even in an aqueous solution |  |  |  | 
6 | CCC(OC)C(C)C1OC1C(O)C(C)/C=C/C=C(\C)C1OC(=O)CC(O)CCC(C)(O)C(OC(C)=O)/C=C/C1C (stereo not drawn) [FD895, reference compound] |  |  |  |  | 993 mAU × sec | 83% | 1197 mAU × sec |  |  |  |  |  |  |  |  | unstable in an aqueous solution | has in vitro cell growth inhibitory activities | has in vitro cell growth inhibitory activities | has in vitro cell growth inhibitory activities | did not show antitumor activities
